Our source for the XC50 values is ChEMBL document CHEMBL1157539, “Thousands of chemical starting points for antimalarial lead identification” (Nature, 2010).

The test has as its system Plasmodium falciparum. Kind of test: GSK_TCMDC: Inhibition of Plasmodium falciparum 3D7 in whole erythrocytes, using parasite LDH activity as an index of growth. The class given is functional, organism-based. The following applies: Plasmodium falciparum, 3D7.
Consider `CCOc1cc(/C=N/Nc2nc3ccccc3[nH]2)ccc1OCc1ccc([N+](=O)[O-])cc1`, for which the XC50 came to 995 nM. For `CCOc1c(CNCCCNc2cc(O)c3ccccc3n2)cc(I)cc1OC`, the XC50 stood at 1170 nM.

In the case of `CCN1CCC(N(Cc2ccc(-c3ccc(C(F)(F)F)s3)cc2)C(=O)Cn2c(CCc3cccc(F)c3F)nc(=O)c3ccccc32)CC1`, the XC50 worked out at 932 nM.

`CCN(CC)CCN(Cc1ccc(-c2ccc(C(F)(F)F)cc2)cc1)C(=O)Cn1c(SCc2ccc(F)cc2)cc(=O)c2ccccc21` gave an XC50 of 752 nM.

With `CCN(CC)CCN(Cc1ccc(-c2ccc(C(F)(F)F)cc2)cc1)C(=O)Cn1c(CCc2ccc(F)cc2)nc(=O)c2sccc21`, the XC50 stood at 670 nM.

Turning to `COc1ccc(CN(C)CCCc2ccc(NC(=O)c3cccc4c(O)c5ccccc5nc34)cc2)cc1OC`, the XC50 was found to be 1370 nM. `O=C(/C=C/c1cccc(C(F)(F)F)c1)NCCCCCN1CCC(c2c[nH]c3ccccc23)CC1` showed an XC50 of 836 nM. Regarding `CCCN(CC1CC1)c1ncc(-c2ccccc2CNCc2ccccc2O)cn1`, the XC50 came out at 496 nM. For `CN1CCc2cc(NS(=O)(=O)c3ccc(-c4ccc(Cl)s4)cc3)c(N3CCCCC3)cc2CC1` the value was 727 nM; for `Cc1nc(C)c(-c2ccc(C(=O)c3ccccc3)cc2)c(O)c1Br`, 778 nM. In the case of `O=C(CSc1ccc(Cl)cc1)NC1CCC(CN2CCC(c3c[nH]c4ccccc34)CC2)CC1` (centres undefined), the XC50 was 934 nM.

Consider `CC(C)Sc1nc2c(c(=O)n1Cc1ccco1)C1(CCCCC1)Cc1ccccc1-2`, for which the XC50 was found to be 251 nM.

Regarding `N#Cc1ccc(N2CCN(Cc3ccc(-c4ccc(-c5nc6cc(C(F)(F)F)ccc6[nH]5)s4)cc3)CC2)nc1`, the XC50 is 814 nM. In turn, `COc1ccc(CNCc2ccc(-c3cccc(-c4nc5cccc(C)c5[nH]4)c3)cc2)cc1` came in with an XC50 of 130 nM. In turn, `CCc1c(CCNCCc2cccc(CCNCCc3ccc(OC)c(OC)c3CC)c2)ccc(OC)c1OC` gave an XC50 of 361 nM. Take `NC(=O)c1cccc(C(=O)Nc2cccc(-c3ccc(-c4nc5ccccc5[nH]4)s3)c2)c1`: the XC50 worked out at 349 nM. Compound `CC(C)Oc1ccc2ccccc2c1CNCCCCCCNCc1c(OC(C)C)ccc2ccccc12` returned an XC50 of 612 nM. `COc1ccc2ccccc2c1CCCCN1CCN(CC(c2ccc(F)cc2)N2CCC2)CC1` (centres undefined) gave an XC50 of 759 nM. As for `Cc1[nH]c(C)c(-c2ccc(CCc3ccc(N)cc3)cc2)c(=O)c1Cl`, the XC50 came out at 98.5 nM. `N#Cc1ccc(CN2CCC(Oc3ccc(NC(=O)c4ccccc4)cc3Cl)CC2)cc1` showed an XC50 of 1260 nM. For `CN1CCN(c2ccc(-c3nc4ccc(OCc5cc(Cl)cc(Cl)c5)c(C(N)=O)c4[nH]3)cc2)CC1` the value was 657 nM; for `C=C[C@H]1CN(CCCCCCC)CC[C@H]1CCNc1ccnc2ccc(OC)cc12`, 61.8 nM.

Turning to `O=C(COc1ccccc1)N(Cc1ccc(-c2ccc(CNC3Cc4ccccc4C3)cc2)cc1)C1CCNCC1`, the XC50 came out at 1020 nM. The compound `O=C(Nc1ccc(F)cc1)c1ccc(C(=O)NC2CCN(CC3CCCCC3)CC2)cc1` yielded an XC50 of 544 nM. `COc1cccc(NC(=O)c2cc(Br)cc(N3CCN(c4ccncc4)CC3)c2)c1` came in with an XC50 of 772 nM. Regarding `O=C(/C=C/c1ccc(Cl)c(Cl)c1)NCCCCCN1CCCC(C(=O)Nc2ccc(Cl)c(Cl)c2)C1` (centres undefined), the XC50 was 785 nM. For `CCN(CC)CCOC(=O)c1ccc(NC(=O)c2cc(-c3ccc(C)cc3)nc3ccccc23)cc1` the value was 779 nM; for `COc1ccc(CNc2nc(NCc3ccc(C(F)(F)F)cc3)c3cc(OC)c(OC)cc3n2)cc1OC`, 210 nM.

`Cc1cccc(OC2CCN(c3ncc(C(=O)NCCCN4CCCC4=O)cc3Cl)CC2)c1` displayed an XC50 of 183 nM. With `CC(C)(CNCc1cc(Cl)cc(Cl)c1)c1nc(-c2ccnc(N)n2)c(-c2ccc(Cl)c(O)c2)[nH]1`, the XC50 amounted to 1010 nM. Compound `Nc1ccc2[nH]cc(C3CCN(CC4CCC(NC(=O)/C=C/c5ccccc5Cl)CC4)CC3)c2n1` (centres undefined) gave an XC50 of 688 nM. Turning to `CCNc1cc(C)nc(Nc2ccc(NC(=O)c3ccccc3Cl)cc2)n1`, the XC50 was 1010 nM. For `O=C(NCCNc1nc(NCCNC(=O)Nc2ccccc2)c2ccc(=O)n(-c3c(F)cccc3F)c2n1)Nc1ccccc1` the value was 170 nM; for `COc1cc(C)nc2ccc(NC(=O)Nc3cccc4ccccc34)cc12`, 878 nM; for `COc1ccc(NC(=O)c2ccc(OCCCCCCCOc3ccc(C(=O)Nc4ccc(OC)c(N5CCN(C)CC5)c4)cc3)cc2)cc1N1CCN(C)CC1`, 598 nM. `FC(F)(F)c1ccc(N2CCCN(Cc3cccc(-c4ccccc4CNCc4ccc5c(c4)OCO5)c3)CC2)nc1` gave an XC50 of 1190 nM. `Oc1cccc(Nc2ccnc3cc(-c4ccccn4)ccc23)c1` gave an XC50 of 744 nM. For `Fc1ccccc1C=NN=c1cc[nH]c2ccccc12` the value was 894 nM. Regarding `Nc1nonc1-c1nc2c(-c3cccc(Cl)c3)nccc2n1CCCNC(=O)Cc1ccc(Cl)cc1`, the XC50 stood at 268 nM.

`Cc1noc(C)c1-c1cccc(CNCc2cccc(-c3csc(-c4nc5ccccc5[nH]4)c3)c2)c1` showed an XC50 of 263 nM. As to `O=C(Nc1ccc(Cn2ncc(N3CCCNCC3)c(Cl)c2=O)cc1)Nc1ccc(OCc2ccccc2)cc1`, the XC50 came out at 822 nM. `CN(C)c1ccc(-c2ccc(C(=O)NC3CCN(Cc4cccc(C(F)(F)F)c4)CC3)s2)cc1` returned an XC50 of 985 nM. On to `O=c1cc(NCCCNCc2cc(F)cc(C(F)(F)F)c2)[nH]c2ccccc12`, for which the XC50 was 1200 nM. Regarding `Oc1ccc2nc(NCCCc3ccccc3)nc(NCCc3ccccc3)c2c1`, the XC50 was determined as 289 nM. In turn, `CC(C)COc1ccc(Cl)cc1Cc1nc(-c2nc3ccc(CN4CCCCC4)cc3[nH]2)co1` had an XC50 of 738 nM.

`CC(=O)Nc1ccc(C(=O)Nc2cccc(-c3cccc(-c4nc5ccccc5[nH]4)c3)c2)cn1` came in with an XC50 of 204 nM. `Clc1ccc(CNc2ccnc(NCc3cccnc3N3CCCC3)n2)c(Cl)c1` registered an XC50 of 1170 nM. For `CN1CCN(c2ccc(-c3cc(-c4cc(F)c(F)c(F)c4)cnc3N)cc2)CC1` the value was 1010 nM; for `COc1ccc(NC(=O)/C=C/c2ccccc2Cl)cc1OCCN1CCC(O)(c2ccc(Cl)c(C(F)(F)F)c2)CC1`, 637 nM. For `COc1cccc(-c2nn(C)c3sc(C(=O)Nc4cccnc4)cc23)c1` the value was 948 nM; for `CCCOC(=O)c1ccc(OCCCON2C(=N)N=C(N)NC2(C)C)cc1`, 3.2 nM. Compound `CN(CCCCCNC(=O)/C=C/c1ccc(Cl)c(Cl)c1)CCCCc1c[nH]c2ccccc12` had an XC50 of 1080 nM.

As to `Cc1[nH]c2ccccc2c1C(=O)C(C)Sc1nnc(-c2ccccc2F)o1` (centres undefined), the XC50 was 691 nM. For the compound `CCOc1ccc(-c2nonc2NC(=O)c2cccc(Cl)c2)cc1OCC`, the XC50 amounted to 147 nM.

The compound `COc1ccc(CNC2Cc3ccccc3C2)cc1-c1ccc(OC)c(S(=O)(=O)NCCN2CCCC2)c1` yielded an XC50 of 773 nM. For `Cc1cc(N)nc2ccc(-c3ccc(CCN)cc3)cc12` the value was 621 nM; for `c1cc2[nH]c(CCCCCc3nc4cc(C5=N[C@@H]6CCCC[C@@H]6N5)ccc4[nH]3)nc2cc1C1=N[C@@H]2CCCC[C@@H]2N1`, 199 nM. In turn, `COC(=O)c1cc2cccc(NC[C@@H](C)NC[C@H](O)c3cccc(Cl)c3)c2[nH]1` yielded an XC50 of 631 nM. The compound `CC(C)Cc1c(O)nc(SCCN2CCOCC2)[nH]c1=O` yielded an XC50 of 1260 nM. With `Cc1cc(N[C@@H](Cc2ccccc2)C(=O)Nc2ccccc2)nc(NCCN2CCCC2)n1`, the XC50 came to 1810 nM. Take `CCN(CC)CCCC(C)Nc1c2cc(OC)ccc2nc2cc(Cl)c([N+](=O)[O-])cc12` (centres undefined): the XC50 worked out at 787 nM.

In the case of `Cc1ccc(NS(=O)(=O)c2ccc(-c3ccccc3)cc2)c(Cn2cnc(N3CCCNCC3)cc2=O)c1`, the XC50 was 859 nM.

`CC(C)(C)c1ccc(-c2nnc(N)nc2N)cc1` had an XC50 of 862 nM.

Compound `COc1cc(C=CC(=O)N2CCC(CCN3CCC(c4c[nH]c5ccccc45)CC3)CC2)cc(OC)c1` showed an XC50 of 909 nM. Consider `Cn1c(NC(=O)C2CCCN(C(=O)c3ccc(O)c(-c4ccc(Cl)c(Cl)c4)c3)C2)nc2ccccc21` (centres undefined), for which the XC50 is 751 nM. For `CCN(CCC1(c2ccc(Cl)c(Cl)c2)CN(C(=O)c2cc(OC)c(OC)c(OC)c2)CCO1)C1CC2c3ccccc3CC21` (centres undefined) the value was 426 nM; for `Cc1ccc2c(C3=CCN(CCCCC4(C)C(=O)Nc5ccccc54)CC3)c(C)[nH]c2c1` (centres undefined), 374 nM.

`CC(C)CNc1nc(N)nc2ccc3c(ccn3CC(C)C)c12` returned an XC50 of 649 nM. `O=c1cc(NCCCNCc2cc(Cl)cc(Cl)c2OCc2ccccc2)[nH]c2ccccc12`: the XC50 is 1030 nM. In turn, `COc1ccc(CNCc2ccc(-c3ccc(-c4nc5ccccc5[nH]4)cc3)cc2)cc1` registered an XC50 of 241 nM. Compound `CCCCCn1c(Sc2ccc(C#N)c([N+](=O)[O-])c2)nnc1-c1cccs1` had an XC50 of 777 nM. The compound `Cc1ccc(F)cc1S(=O)(=O)Nc1cccc(CCN2CCC(N3CCCCC3)CC2)c1` showed an XC50 of 1120 nM. For the compound `CN1CCCN(Cc2cccc(-c3ccc(NC(=O)c4ccc(Cl)cc4)cc3)c2)CC1`, the XC50 turned out to be 720 nM.

Take `COc1cccc(C(NC(=O)c2ccccc2)c2ccc3cccnc3c2O)c1` (centres undefined): the XC50 came to 1080 nM. In turn, `CC(=O)Nc1cccc(Nc2nccc(-c3c(-c4cccc(NC(=O)c5c(F)cccc5F)c4)nn4ncccc34)n2)c1` yielded an XC50 of 184 nM.

In the case of `O=C(Nc1cc(=O)[nH]c2nc(-c3ccccc3)nn12)C1CCCCC1`, the XC50 was 416 nM.

The compound `CC(C)C(C(=O)n1cc2c(ccc3nc(N)nc(N)c32)n1)C(C)C` displayed an XC50 of 790 nM. `Cc1ccc(C(O)CNc2ccnc(Nc3cccc(-c4csc(C)n4)c3)n2)cc1` (centres undefined) displayed an XC50 of 826 nM.

Turning to `O=S(=O)(c1cccc(Cl)c1F)N(CCC(O)(C(F)(F)F)C(F)(F)F)Cc1cccc(O)c1`, the XC50 was found to be 918 nM.

`O=c1cc(NCC2(CNCc3cn(Cc4ccccc4)c4ccccc34)CCCCC2)[nH]c2ccccc12` showed an XC50 of 684 nM. Regarding `COc1ccccc1NC(=O)Nc1cccc(-c2cccc(-c3nc4cccc(C)c4[nH]3)c2)c1`, the XC50 was determined as 95.7 nM.

`COc1ccc2nccc([C@@H](O)CN3CCC(NCCOc4c(C)cccc4F)CC3)c2c1`: the XC50 stood at 347 nM. The compound `CC1Cc2ccccc2N1S(=O)(=O)c1cccc(C(=O)Nc2nc(-c3ccccn3)cs2)c1` (centres undefined) registered an XC50 of 1320 nM. The compound `O=C(N[C@H]1CCN(Cc2ccc(OCCCN3CCCCC3)cc2)C1)c1ccc(Cl)c(Cl)c1` came in with an XC50 of 781 nM.
